For 5 compounds, mass density and refractive index results are on record in the NIST ThermoML archive (doi:10.1016/j.fluid.2011.04.001).

SMILES strings stand for the structures. ± gives the expanded uncertainty stated by the source.

Data set [1] in a line: xn = mol fraction of the nth substance listed. Particulars: 298.15 K, 101 kPa, Liquid, Vibrating tube method.
For data set [2] the following is noted: 298.15 K; 101.33 kPa; Liquid; Vibrating tube method.
Data set [3] can be described thus: refractive index (Na D-line) (dimensionless). The note with it: 298.15 K; 101.33 kPa; Liquid; Standard Abbe refractometry.

As usually defined, the mass density is the mass of a sample divided by its volume. For `CCOS(=O)(=O)[O-].CCn1cc[n+](C)c1` [1-ethyl-3-methylimidazolium ethyl sulfate] + Cc1ccccc1C, in data set [1] (x2 = 0.142), the mass density turned out to be 1207.74 ± 1.5 kg/m3.
What is called refractive index is a measure of how strongly the sample bends light. As to `CCOS(=O)(=O)[O-].CCn1cc[n+](C)c1` [1-ethyl-3-methylimidazolium ethyl sulfate], the mass density in data set [2] is listed as 1237.23 ± 0.43 kg/m3. Besides, the refractive index in data set [3] was 1.50591 ± 0.0004.
Consider `CCOS(=O)(=O)[O-].CCn1cc[n+](C)c1` [1-ethyl-3-methylimidazolium ethyl sulfate] + Cc1ccc(C)cc1, for which, in data set [1] (x2 = 0.123), the mass density stood at 1210.97 ± 1.5 kg/m3.
Turning to `CCOS(=O)(=O)[O-].CCn1cc[n+](C)c1` [1-ethyl-3-methylimidazolium ethyl sulfate] + CCCCCC, in data set [1] (x2 = 0.015), the mass density stood at 1234.45 ± 1.5 kg/m3.
With `CCOS(=O)(=O)[O-].CCn1cc[n+](C)c1` [1-ethyl-3-methylimidazolium ethyl sulfate] + Cc1cccc(C)c1, in data set [1] (x2 = 0.119), the mass density was 1212.69 ± 1.5 kg/m3.
